For 3 molecules, inhibition and IC50 results are on record in patent US20200325156A1, “HETEROARYL AMIDE COMPOUNDS, PREPARATION METHOD THEREFOR, PHARMACEUTICAL COMPOSITIONS THEREOF, AND APPLICATIONS THEREOF” (Rui Jin Hospital Affiliated to Shanghai Jiao Tong …, priority 2017, published 2020).

In general, inhibition refers to the share of the control response that was lost under treatment. In general, IC50 refers to the concentration that inhibits the measured activity by half.

Holding throughout (format): cell-based
Experiment [1] relates to Human lung cancer cells A549. Put plainly: MTS cell growth inhibition, A549. Conditions: for inhibition at 10 µM: compound concentration 10 μM, 48 h, MTS, read-out: Inhibition rate against A549 at 10 μM (%). Here is the method: (§1) 1) Medium: DMEM (Dulbecco's modified eagle medium) or RPMI1640 (containing 10% fetal bovine serum, 100 μg/mL ampicillin, 100 μg/mL streptomycin).
(§2) 2) Reagent: MTS reaction solution (containing 2 mg/mL of MTS (3-(4,5-dimethylthiazol-2-yl)-5-(3-carboxymethoxyphenyl)-2-(4-sulfophenyl)-2H-tetrazolium, inner salt); 100 μg/mL PES ([…])).
(§3) Human promyelocytic leukemia cells HL-60 (2×10^4 cells/well) cultured in vitro were incubated into a 96-well culture plate, the volume of cell-culture medium was 90 μL, and then 10 μL of the compound at each gradient concentration was added (the highest concentration was 10 μM, which was diluted stepwise by ⅓, and 8 concentration points were set in total; the system contained 0.1% DMSO (dimethyl sulfoxide)). The cell plate with uniformly mixed compound was cultured in a cell culture incubator (37° C.; 5% CO2) for 48 h, then 20 μμL of MTS reaction solution was added, uniformly mixed and incubated in the cell culture incubator (37° C.; 5% CO2) for 1-4 hr; OD values at 490 nm were measured by a microplate reader (VARIOSKAN FLASH, Thermo). Three parallels were set in each group of experiments, with 0.1% (a final concentration) DMSO as a negative control, and a medium without cells and compounds as a blank control. The cell growth inhibition rate was calculated by the following formula:
(§4) Cell growth inhibition rate%=1−(ODexperimental group−ODblank group)/(ODnegative group−ODblank group)×100%
(§5) 4) IC50 calculation: The semi-inhibitory concentration of the compound acting on cell was calculated using GradPad Prism 5 software according to the measured cell growth inhibition rate.
(§6) Human lung cancer cells A549, human gastric cancer cells BGC-823, human liver cancer cells HepG-2 and human breast cancer cells MCF-7, human osteosarcoma cells U2OS, human prostate cancer cells LNCAP cultured in vitro were added in a 96-well culture plate at 1,000-10,000 cells/well, incubated until adherence, and then the compound was added. As to other procedures, please refer to the method (1) above.

The test system of experiment [2] is human gastric cancer cells BGC-823. Put plainly: MTS cell growth inhibition, BGC-823. Conditions: compound concentration 10 μM, 48 h, read-out: Inhibition rate against BGC-823 at 10 μM (%). Here is the method: as §1, §2, §3, §4, §5, §6
Experiment [3] deals with human liver cancer cells HepG-2. Put plainly: MTS cell growth inhibition, HepG-2. Particulars: HepG2, compound concentration 10 μM, 48 h, read-out: Inhibition rate against HepG-2 at 10 μM (%). Here is the method:
as §1, §2, §3, §4, §5, §6

For experiment [4], the system named is human breast cancer cells MCF-7. Put plainly: MTS cell growth inhibition, MCF-7. Particulars: MCF7, compound concentration 10 μM, 48 h, read-out: Inhibition rate against MCF-7 at 10 μM (%). Here is the method:
as §1, §2, §3, §4, §5, §6

Experiment [5] relates to Human promyelocytic leukemia cells HL-60. Put plainly: MTS cell growth inhibition, HL-60. Particulars: Homo sapiens, HL-60, 48 h, MTS; for inhibition at 10 µM: compound concentration 10 μM, read-out: Inhibition rate against HL-60 at 10 μM (%); for IC50: growth inhibition. The protocol:
as §1, §2, §3, §4, §5

Experiment [6] has as its system human osteosarcoma cells U2OS. Put plainly: MTS cell growth inhibition, U2OS. Particulars: Homo sapiens, U2OS, 48 h, MTS; for inhibition at 10 µM: compound concentration 10 μM, read-out: Inhibition rate against U2OS at 10 μM (%); for IC50: growth inhibition. Here is the method:
as §1, §2, §3, §4, §5, §6

For experiment [7], the system named is human prostate cancer cells LNCAP. Put plainly: MTS cell growth inhibition, LNCAP. Conditions: Homo sapiens, LNCaP, 48 h, MTS; for inhibition at 10 µM: compound concentration 10 μM, read-out: Inhibition rate against LNCAP at 10 μM (%); for IC50: growth inhibition. The protocol: as §1, §2, §3, §4, §5, §6
The test system of experiment [8] is lung cancer cell line NCI-1975. Put plainly: Growth inhibitory activity, NCI-1975. Conditions: growth inhibition; read-out: Lung cancer cells IC50 NCI-1975.
Experiment [9] concerns lung cancer cell line HCC827. Put plainly: Growth inhibitory activity, HCC827. Particulars: Homo sapiens, growth inhibition, read-out: Lung cancer cells IC50 HCC827.
In experiment [10] the test system is human embryo lung cell line WI-38. Put plainly: Growth inhibitory activity, WI-38. Conditions: growth inhibition, normal cells.
In experiment [11] the test system is human embryo lung cell line HFL-1. As to the kind of experiment: Growth inhibitory activity, HFL-1. Particulars: HFL1, growth inhibition, normal cells.
A further experiment relates to leukemia cell line SHI-1. Put plainly: Growth inhibitory activity, SHI-1. Particulars: growth inhibition; read-out: Leukemia cells IC50 SHI-1.
The next experiment concerns leukemia cell line THP-1. As to the kind of experiment: Growth inhibitory activity, THP-1. Particulars: Homo sapiens, growth inhibition, read-out: Leukemia cells IC50 THP-1.
The test system of another experiment is leukemia cell line NB-4. As to the kind of experiment: Growth inhibitory activity, NB4. Conditions: growth inhibition; read-out: Leukemia cells IC50 NB4.
The subject of experiment [12] is tumor cells (NCI-1975, HCC827, A549, SHI-1, THP-1, NB-4). Put plainly: Growth inhibition of tumor cells (summary over cell lines). Particulars: range over lung cancer and leukemia cell lines. Here is the method:
as §1, §2
as §3, with “Three parallels were set in each group of experiments, with 0.1% (a final concentration) DMSO as a negative control, and a medium without cells and compounds as a blank control.” left out, “formula: […]” for “formula:”
4) IC50 calculation: The semi-inhibitory concentration of the compound acting on cell was calculated using GradPad Prism 5 software according to the measured cell growth inhibition rate. […]

For experiment [13], the system named is normal human embryo lung cells (WI-38 and HFL-1). As to the kind of experiment: Growth of normal human embryo lung cells (summary).

On to `CC(C)Oc1ccc(NC(=O)c2cc3scnc3[nH]2)cc1` [Compound I-2], for which the inhibition at 10 µM in [1] was 81.9%; in [2], 61.7%; in experiment [3], 60.1%; in experiment [4] it was 23.1%; in [5], less than 0%; in experiment [6], 19.4%. Further, the inhibition at 10 µM in experiment [7] is 22.2%. The IC50 in [1] (growth inhibition) amounted to 0.03 µM; in [8], 0.057 µM; in experiment [9], 0.008 µM; in [10] it was 5.62 µM; in experiment [11] it was 8.59 µM; in the experiment with leukemia cell line SHI-1 it was 0.221 µM. Moreover, the IC50 was 2.46 µM in the experiment with leukemia cell line THP-1, 0.28 µM with leukemia cell line NB-4, 0.008 to 0.28 µM in experiment [12] and more than 5 µM in experiment [13].
With `CS(=O)(=O)c1ccc(OCc2cccc(NC(=O)c3cc4scnc4[nH]3)c2)cc1` [Compound I-32], the inhibition at 10 µM was less than 0% in experiment [1]; 9.2% in [2]; less than 0% in experiment [3]; less than 0% in experiment [4]; 70.3% in experiment [5]; 45.2% in experiment [6]. Also, the inhibition at 10 µM in experiment [7] is 41.5%. The IC50 in [5] was 1.85 µM; in experiment [6], 5.47 µM; in [7] it was 7.03 µM.
As for `Cc1cn(-c2cc(NC(=O)c3cc4scnc4[nH]3)cc(C(F)(F)F)c2)cn1` [Compound I-35], the inhibition at 10 µM in [1] was 59.5%; in [2], 44.4%; in experiment [3], 50.5%; in experiment [4] it was less than 0%; in experiment [5] it was 80.4%; in experiment [6], 42.2%. Besides, the inhibition at 10 µM in experiment [7] is 61.9%. The figures for the IC50 in experiment [5], in [6] and in experiment [7] were 7.03 µM, 7.85 µM and 4.74 µM, respectively.
